Assay results published in patent EP0863148A1, “Compounds derived from adenosine, use of such compound as a medicament, method for synthesizing such a compound and intermediates thereof” (K.U. LEUVEN RESEARCH & DEVELOPMENT, priority 1997, dated 1998).

What was measured:
adenosine A1 receptor = target: T1, adenosine A1 receptor (Rattus norvegicus, UniProt P25099); assay: Radioligand binding assay, displacement of [3H]DPCPX, in the absence and presence of 1 mM GTP; conditions: for Ki: rat brain cortex, [3H]DPCPX; for GTP shift: ratio of the apparent Ki values in the presence and absence of 1 mM GTP
T1 construct: adenosine A1 receptor in rat brain cortex; from tissue; host or cells: rat brain cortex
T1 sequence (P25099 1-326): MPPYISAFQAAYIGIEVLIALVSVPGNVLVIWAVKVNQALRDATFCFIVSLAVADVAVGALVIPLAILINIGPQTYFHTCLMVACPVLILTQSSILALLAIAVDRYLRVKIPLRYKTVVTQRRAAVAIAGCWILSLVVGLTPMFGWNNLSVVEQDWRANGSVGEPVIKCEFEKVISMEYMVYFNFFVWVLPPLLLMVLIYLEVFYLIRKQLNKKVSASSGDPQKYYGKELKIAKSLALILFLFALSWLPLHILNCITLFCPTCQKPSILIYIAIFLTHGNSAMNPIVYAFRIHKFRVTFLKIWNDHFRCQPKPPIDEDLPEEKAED
Description: The compounds were assayed for A1 affinity (Ki values expressed in µM) using the tritiated antagonist [^3H]-1,3-dipropyl-8-cyclopentylxanthine (DPCPX). Displacement experiments were performed in the absence and presence of 1 mM GTP, allowing the determination of the GTP shift (i.e., the ratio of the apparant Ki values in the presence and absence of GTP, respectively). This shift is an in vitro parameter often indicative for intrinsic activity.

A1 receptor = target: T2, A1 receptor (Homo sapiens, UniProt P30542); conditions: cited from earlier work
T2 sequence (P30542 1-326): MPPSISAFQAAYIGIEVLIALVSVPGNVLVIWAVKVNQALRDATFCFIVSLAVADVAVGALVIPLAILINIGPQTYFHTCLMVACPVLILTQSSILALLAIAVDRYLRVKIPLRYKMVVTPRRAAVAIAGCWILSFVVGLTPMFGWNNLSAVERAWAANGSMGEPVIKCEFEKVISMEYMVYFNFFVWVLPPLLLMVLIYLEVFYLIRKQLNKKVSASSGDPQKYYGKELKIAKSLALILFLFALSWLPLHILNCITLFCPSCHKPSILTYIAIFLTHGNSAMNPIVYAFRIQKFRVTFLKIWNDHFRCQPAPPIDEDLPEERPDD

A2a receptors = assay: Selectivity for A1 vs A2a receptors (method not described); type: binding
Chain of A2a receptors (P29274 whole entry): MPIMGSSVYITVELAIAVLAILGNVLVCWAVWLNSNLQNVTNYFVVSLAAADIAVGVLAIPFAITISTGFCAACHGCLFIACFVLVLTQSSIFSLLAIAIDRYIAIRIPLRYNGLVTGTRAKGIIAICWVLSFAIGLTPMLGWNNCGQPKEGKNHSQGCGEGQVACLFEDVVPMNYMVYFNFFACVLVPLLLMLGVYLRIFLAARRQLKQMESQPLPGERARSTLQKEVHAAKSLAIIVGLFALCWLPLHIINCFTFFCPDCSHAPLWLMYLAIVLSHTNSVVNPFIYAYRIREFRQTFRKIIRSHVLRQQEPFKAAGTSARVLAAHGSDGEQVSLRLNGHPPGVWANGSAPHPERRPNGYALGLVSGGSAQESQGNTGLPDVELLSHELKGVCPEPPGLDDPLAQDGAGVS

Row | Ki (adenosine A1 receptor; absence of GTP) | Ki (adenosine A1 receptor; presence of 1 mM GTP) | GTP shift (adenosine A1 receptor) | selectivity for A1 vs A2a receptors (A2a receptors) | affinity for A1 receptors (adenosine A1 receptor; stated in words) | Structure (SMILES) | affinity for the A1 receptor (A1 receptor; stated in words, background) | drop in affinity (A1 receptor; A1 receptor affinity, removal of the 3'-hydroxyl group of R-PIA)
1 | 110 ± 30 nM | 470 ± 40 nM | 4.3±1.2 | – | – | OCC1CC(O)C(n2cnc3c(NC4CCCC4)ncnc32)O1 (stereo not shown) [3'-deoxy-CPA, reference compound] | submicromolar affinity | –
2 | – | – | – | – | – | C[C@H](Cc1ccccc1)Nc1ncnc2c1ncn2[C@@H]1O[C@H](CO)C[C@H]1O [3'-deoxy-R-PIA] | – | 30 fold
3 | 7120 ± 3620 nM | 15200 ± 2000 nM | 2.1±1.4 | – | – | Nc1ncnc2c1ncn2[C@@H]1O[C@H](CO)C[C@H]1O [3'-deoxyadenosine, reference compound] | – | –
4 | 400 ± 130 nM | 310 ± 50 nM | 0.80±0.13 | – | – | O=C(N[C@@H]1[C@@H](O)[C@H](n2cnc3c(NC4CCCC4)ncnc32)O[C@@H]1CO)c1ccccc1 [a, 9-(3-Benzamido-3-deoxy-β-D-xylofuranosyl)-N^6-cyclopentyladenine] | – | –
5 | 83 ± 15 nM | 68 ± 10 nM | 0.84±0.19 | – | – | Cc1ccc(C(=O)N[C@@H]2[C@@H](O)[C@H](n3cnc4c(NC5CCCC5)ncnc43)O[C@@H]2CO)cc1 [b, 9-[3-Deoxy-3-(4-methylbenzamido)-β-D-xylofuranosyl]-N^6-cyclopentyladenine] | – | –
6 | 23.6 ± 2.5 nM | 17.4 ± 4.2 nM | 0.73±0.11 | 160 times | – | Cc1ccc(C(=O)N[C@@H]2[C@@H](O)[C@H](n3cnc4c(NC5CCCC5)ncnc43)O[C@@H]2CO)cc1C [c, 9-[3-Deoxy-3-(3,4-dimethylbenzamido)-β-D-xylofuranosyl]-N^6-cyclopentyladenine] | – | –
7 | – | – | – | – | relatively poor affinity | [N-]=[N+]=NC1C(CO)OC(n2cnc3c(NC4CCCC4)ncnc32)C1O (stereo not shown) [compound 3] | – | –
8 | 32.5 ± 0.31 nM | 23.7 ± 1.4 nM | 0.73±0.09 | – | – | O=C(N[C@@H]1[C@@H](O)[C@H](n2cnc3c(NC4CCCC4)ncnc32)O[C@@H]1CO)c1ccc(Cl)c(Cl)c1 [d, 9-[3-Deoxy-3-(3,4-dichlorobenzamido)-β-D-xylofuranosyl]-N^6-cyclopentyladenine] | – | –
